Data from patent publication US12617784B2, “AKT inhibitor” (Nanjing Chia Tai Tianqing Pharmaceutical Co., Ltd., priority 2019, dated 2026).
Counter-ions that a name gives are not always drawn. Like-named read-outs stand apart in the source and are kept apart here.

Assays:
[1] = Pharmacokinetic evaluation in mice after intragastric administration; assay type: in vivo, mouse; conditions: po
Experimental: 400 μl of stock solution with a concentration of 10 mg/mL was accurately pipetted into a glass bottle, and 3.6 mL of mixed menstruum was added. The ratio of the menstruum in the final formulation is DMSO:mixed menstruum (v/v)=10:90. After vortexing (or sonication) and evenly distributed, 4 mL of a dosing solution with a concentration of 1 mg mL^-1 for each compound was obtained. Formulation of Isomer 2 of the compound of Example 15: Menstruum: DMSO: PEG400: ultrapure water=5:20:75 (v/v/v) 5.37 mg of test sample Isomer 2 of the compound of Example 15 was weighed into a glass bottle; 0.269 mL of DMSO was added, vortexed to completely dissolve the solid material; 1.074 mL of PEG400 was added, vortexed, and mixed; 4.028 mL of ultrapure water was added, vortexed and mixed to obtain a colorless solution with a concentration of 1 mg·mL^-1. Experimental animal: mouse, strain ICR, source: Weitong Lihua Laboratory Animal Technology Co., Ltd., age: 6-10 weeks, male. [table] The experimental animals were fed in the animal room of Suzhou Shengsu New Pharmaceutical Development Co., Ltd. The animal room was well ventilated and equipped with air conditioning. The temperature was maintained at 20-25° C. and the humidity was maintained at 40%-70%. Bright and dark lighting for 12 hours each, and the experimental animals ate and drank freely. After normal feeding for at least 5 days, mice with good physical signs were selected for this experiment after veterinary inspection. Each mouse was marked with a tag on its tail. On the day before the experiment, the mice were fasted overnight and were allowed to drink freely, and were fed 4 hours after the administration. […] After the administration, about 100 μL of blood was collected from the orbit of the mouse at each time point and placed in an EDTA-K2 anticoagulation tube. […] An LC-MS/MS analytical method for determining the concentration of compounds in mouse plasma was established and used to determine the concentration of compounds in the biological samples obtained in this experiment. The non-compartmental model in Pharsight Phoenix 7.0 was used to calculate the pharmacokinetic parameters.

AKT1 = AKT1 (Homo sapiens, UniProt P31749); assay: In vitro enzyme activity test (HTRF kinEASE TK), AKT1; assay type: biochemical; conditions: ATP 2 μM, enzyme 0.6 ng/well, reaction 50 min
AKT1, sequence (P31749 whole entry): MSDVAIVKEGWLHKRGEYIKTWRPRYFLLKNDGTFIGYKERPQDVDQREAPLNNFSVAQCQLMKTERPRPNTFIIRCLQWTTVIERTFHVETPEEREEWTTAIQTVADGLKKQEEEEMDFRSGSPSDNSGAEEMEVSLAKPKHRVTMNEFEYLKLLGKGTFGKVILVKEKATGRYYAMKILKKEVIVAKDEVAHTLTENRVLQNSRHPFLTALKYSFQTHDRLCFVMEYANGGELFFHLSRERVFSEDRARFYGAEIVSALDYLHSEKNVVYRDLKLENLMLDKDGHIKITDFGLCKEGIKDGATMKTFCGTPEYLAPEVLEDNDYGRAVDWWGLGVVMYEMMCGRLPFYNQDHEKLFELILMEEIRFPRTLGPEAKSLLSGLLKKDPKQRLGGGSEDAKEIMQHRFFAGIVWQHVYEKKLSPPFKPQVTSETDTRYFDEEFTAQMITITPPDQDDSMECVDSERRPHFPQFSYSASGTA
Experimental: (§1) Experimental Procedure 2.1 Preparation of Reagents
(§2) 1 mL 1× Kinase Reaction Buffer of Kinase AKT1, AKT2 and AKT3 contain 200 μL 5× Kinase Reaction Buffer, 5 μL 1 M MgCl2, 1 μL 1 M DTT and 794 μL ultrapure water.
(§3) In addition to the control wells, 4 μL of the diluted compound working solutions were added to all reaction wells.
(§4) b) 2 μL of the previously prepared TK-biotin substrate solution was added to all reaction wells.
(§5) c) 2 μL of the previously prepared enzyme solution was added to all reaction wells, except the negative wells. The volume of the negative well was filled with 2 μL of enzyme corresponding to 1× kinase reaction buffer. The plate was sealed with sealing film. After mixing, the plate was incubated at room temperature for 10 min to allow the compound and enzyme to fully combined.
(§6) d) 2 μL of ATP solution was added to all reaction wells to start the kinase reaction.
(§7) e) The test solution was prepared 5 min before the end of the kinase reaction.
(§8) f) After the kinase reaction was completed, 5 μL of diluted streptavidin-XL665 were added to all reaction wells, and immediately the diluted europium-labeled tyrosine kinase substrate antibody detection solution was added after mixing.
(§9) g) The plate was sealed and mixed well. […] The inhibition rate of each well was calculated through the fully active wells and the background signal wells, taking the average value in case of multiple wells. Meanwhile, the professional drawing analysis software PRISM 6.0 was used to fit the half maximal inhibitory concentration (IC50) of each test compound.

AKT3 = target: T1, AKT3 (Homo sapiens, UniProt Q9Y243); assay: In vitro enzyme activity test (HTRF kinEASE TK), AKT3; assay type: biochemical; conditions: enzyme 0.3 ng/well, reaction 50 min
T1 construct: purchased Invitrogen PV3185
T1 sequence (Q9Y243 whole entry): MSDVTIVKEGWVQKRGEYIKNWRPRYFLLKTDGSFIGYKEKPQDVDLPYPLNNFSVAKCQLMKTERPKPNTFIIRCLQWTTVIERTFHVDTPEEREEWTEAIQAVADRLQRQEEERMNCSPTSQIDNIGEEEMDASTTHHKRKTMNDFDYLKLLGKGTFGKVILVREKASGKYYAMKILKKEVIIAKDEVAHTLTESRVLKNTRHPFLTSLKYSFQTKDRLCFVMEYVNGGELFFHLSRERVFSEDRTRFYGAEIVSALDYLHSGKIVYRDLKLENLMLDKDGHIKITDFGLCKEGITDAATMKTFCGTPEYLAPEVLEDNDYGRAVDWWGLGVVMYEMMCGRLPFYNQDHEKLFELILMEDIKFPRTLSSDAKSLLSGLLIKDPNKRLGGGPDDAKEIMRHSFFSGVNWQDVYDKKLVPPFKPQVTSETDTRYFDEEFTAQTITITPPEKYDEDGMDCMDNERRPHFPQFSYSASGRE
Experimental: as §1, §2, §3, §4, §5, §6, §7, §8, §9

AKT2 = target: T2, AKT2 (Homo sapiens, UniProt P31751); assay: In vitro enzyme activity test (HTRF kinEASE TK), AKT2; assay type: biochemical; conditions: ATP 20 μM, enzyme 0.1 ng/well, reaction 50 min
T2 construct: purchased Carna 01-102
T2 sequence (P31751 whole entry): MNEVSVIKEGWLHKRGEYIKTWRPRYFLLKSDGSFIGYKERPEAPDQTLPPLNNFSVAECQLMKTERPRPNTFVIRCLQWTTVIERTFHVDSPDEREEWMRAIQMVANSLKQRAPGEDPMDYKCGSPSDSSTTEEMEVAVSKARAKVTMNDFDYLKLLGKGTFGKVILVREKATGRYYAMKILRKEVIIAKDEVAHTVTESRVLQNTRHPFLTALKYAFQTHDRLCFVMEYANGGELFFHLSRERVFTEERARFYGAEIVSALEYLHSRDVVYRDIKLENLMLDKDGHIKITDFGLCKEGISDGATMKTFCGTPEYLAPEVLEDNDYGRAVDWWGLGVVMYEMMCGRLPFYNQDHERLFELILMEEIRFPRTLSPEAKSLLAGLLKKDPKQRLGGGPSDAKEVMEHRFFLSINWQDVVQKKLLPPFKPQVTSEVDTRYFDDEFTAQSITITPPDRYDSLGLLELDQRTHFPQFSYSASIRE
Experimental: as §1, §2, §3, §4, §5, §6, §7, §8, §9

[2] = male ICR mouse, 10 mg·kg−1 intragastrically, single dose, fasted, plasma
[3] = male ICR mouse, 10 mg·kg−1 intragastrically, single dose, fasted, plasma, read-out: AUC
[4] = male ICR mouse, 10 mg·kg−1 intragastrically, single dose, fasted, plasma, read-out: Cmax
[5] = male ICR mouse, 10 mg·kg−1 intragastrically, single dose, fasted, plasma, read-out: Tmax
[6] = male, ICR, mouse, in vivo, 10 mg/kg

SMILES | IC50 (AKT1) [nM] | IC50 (AKT3) [nM] | further results
CC(C)NC[C@@H](C(=O)N1CCN(c2ncnc3c2[C@H](C)CC(=O)N3)[C@H]2C[C@H]21)c1ccc(Cl)cc1 (single isomer, unassigned) [Example 15 Isomer 2] |  |  | half-life [1, 2]: 3.16 h; AUC [1, 3]: 2170 ng·h/mL; Cmax [1, 4]: 583 ng/mL; Tmax [1, 5]: 1 h
CC(C)NC[C@@H](C(=O)N1C2CCC1CN(c1ncnc3c1[C@H](C(F)(F)F)CC(=O)N3)C2)c1ccc(Cl)cc1 (single isomer, unassigned) [Example 24 Isomer 2] | 116 | 19 | IC50 (AKT2): ≥ 1000 nM
CC(C)NC[C@@H](C(=O)N1CC2CCC(C1)N2c1ncnc2c1[C@@H](C(F)(F)F)CC(=O)N2)c1ccc(Cl)cc1 (single isomer, unassigned) [Example 25 Isomer 1] | 218 | 20 | IC50 (AKT2): ≥ 1000 nM
CC(C)NC[C@@H](C(=O)N1CC2CCC(C1)N2c1ncnc2c1[C@H](C(F)(F)F)CC(=O)N2)c1ccc(Cl)cc1 (single isomer, unassigned) [Example 25 Isomer 2] | 0.59 | 0.19 | IC50 (AKT2): 20 nM
CC(C)NC[C@@H](C(=O)N1CCN(c2ncnc3c2N(C)CC(=O)N3)[C@@H]2C[C@@H]21)c1ccc(Cl)cc1 (single isomer, unassigned) [Example 27 Isomer 2] | 147 | 7.4 | IC50 (AKT2): ≥ 1000 nM
CC(C)NC[C@@H](C(=O)N1CCN(c2ncnc3c2[C@H](C)OC(=O)N3)[C@H]2C[C@H]21)c1ccc(Cl)cc1 (single isomer, unassigned) [Example 34 Isomer 4] | 0.6 | 0.12 | AUC [1, 3]: 2580 ng·h/mL; Cmax [1, 4]: 497 ng/mL; Tmax [1, 5]: 4 h
CC(C)NC[C@@H](C(=O)N1CCN(c2ncnc3c2C(C)CC(=O)N3)CC1)c1ccc(Cl)cc1 (stereo partly drawn) [Example 1, 4-(4-((S)-2-(4-chlorophenyl)-3-(isopropylamino)propionyl)piperazin-1-yl)-5-methyl-5,8-dihydropyrido[2,3-d]pyrimidin-7(6H)-one] | 2.4 | 1.6 | 
CC(C)NC[C@@H](C(=O)N1CCN(c2ncnc3c2CCC(=O)N3)CC1)c1ccc(Cl)cc1 [Example 3, (S)-4-(4-(2-(4-chlorophenyl)-3-(isopropylamino)propionyl)piperazin-1-yl)-5,8-dihydropyrido[2,3-d]pyrimidin-7(6H)-one] | 52.4 | 7.5 | 
CC(C)NC[C@@H](C(=O)N1CCN(c2ncnc3c2[C@H](C)CC(=O)N3)[C@H](C)C1)c1ccc(Cl)cc1 [Example 7, (R)-4-((R)-4-((S)-2-(4-chlorophenyl)-3-(isopropylamino)propionyl)-2-methylpiperazin-1-yl)-5-methyl-5,8-dihydropyrido[2,3-d]pyrimidin-7(6H)-one] | 26.4 | 7.4 | 
CC(C)NC[C@@H](C(=O)N1CCN(c2ncnc3c2[C@H](C)CC(=O)N3)C[C@H]1C)c1ccc(Cl)cc1 [Example 8, (R)-4-((R)-4-((S)-2-(4-chlorophenyl)-3-(isopropylamino)propionyl)-3-methylpiperazin-1-yl)-5-methyl-5,8-dihydropyrido[2,3-d]pyrimidin-7(6H)-one] | 28.7 | 2.7 | 
CC(C)NC[C@@H](C(=O)N1C2CCC1CN(c1ncnc3c1[C@H](C)CC(=O)N3)C2)c1ccc(Cl)cc1 [Example 10, (R)-4-(8-((S)-2-(4-chlorophenyl)-3-(isopropylamino)propionyl)-3,8-diazabicyclo[3.2.1]octan-3-yl)-5-methyl-5,8-dihydropyrido[2,3-d]pyrimidin-7(6H)-one] | 2.8 | 0.21 | half-life [1, 2]: 1.67 h; AUC [1, 3]: 911 ng·h/mL; Cmax [1, 4]: 321 ng/mL; Tmax [1, 5]: 0.5 h
CC(C)NC[C@@H](C(=O)N1CC2CCC(C1)N2c1ncnc2c1[C@H](C)CC(=O)N2)c1ccc(Cl)cc1 [Example 11, (R)-4-(3-((S)-2-(4-chlorophenyl)-3-(isopropylamino)propionyl)-3,8-diazabicyclo[3.2.1]octan-8-yl)-5-methyl-5,8-dihydropyrido[2,3-d]pyrimidin-7(6H)-one] | 3.5 | 0.25 | 
CC(C)NC[C@@H](C(=O)N1CCN(c2ncnc3c2[C@H](C)CC(=O)N3)CC12CC2)c1ccc(Cl)cc1 [Example 12, (R)-4-(4-((S)-2-(4-chlorophenyl)-3-(isopropylamino)propionyl)-4,7-diazaspiro[2.5]octan-7-yl)-5-methyl-5,8-dihydropyrido[2,3-d]pyrimidin-7(6H)-one] | 55.1 | 4.8 | 
CC(C)NC[C@@H](C(=O)N1C[C@@H]2CN(c3ncnc4c3[C@H](C)CC(=O)N4)C[C@@H]2C1)c1ccc(Cl)cc1 [Example 13 cis-isomer, cis-(5R)-4-(5-((S)-2-(4-chlorophenyl)-3-(isopropylamino)propionyl)hexahydropyrrole[3,4-c]pyrrole-2(1H)-yl)-5-methyl-5,8-dihydropyrido[2,3-d]pyrimidin-7(6H)-one] | 285 | 6.6 | 
CC(C)NC[C@@H](C(=O)N1CCN(c2ncnc3c2CC(C)C(=O)N3)CC1)c1ccc(Cl)cc1 (stereo partly drawn) [Example 19, 4-(4-((S)-2-(4-chlorophenyl)-3-(isopropylamino)propionyl)piperazin-1-yl)-6-methyl-5,8-dihydropyrido[2,3-d]pyrimidin-7(6H)-one hydrochloride] | 58.5 | 7.4 | 
CC(C)NC[C@@H](C(=O)N1CCN(c2ncnc3c2N(C)CC(=O)N3)CC1)c1ccc(Cl)cc1 [Example 20, (S)-4-(4-(2-(4-chlorophenyl)-3-(isopropylamino)propionyl)piperazin-1-yl)-5-methyl-5,8-dihydropteridine-7(6H)-one hydrochloride] | 1.1 | 0.4 | 
CC(C)NC[C@@H](C(=O)N1C2CCC1CN(c1ncnc3c1N(C)CC(=O)N3)C2)c1ccc(Cl)cc1 [Example 21, 4-(8-((S)-2-(4-chlorophenyl)-3-(isopropylamino)propionyl)-3,8-diazabicyclo[3.2.1]octan-3-yl)-5-methyl-5,8-dihydropteridine-7(6H)-one formate] | 1.9 | 0.2 | AUC [1, 6]: 2290 ng·h/mL; Cmax [1, 6]: 681 ng/mL; Tmax [1, 6]: 1 h
CC(C)NC[C@@H](C(=O)N1CCN(c2ncnc3c2C(C)OC(=O)N3)CC1)c1ccc(Cl)cc1 (stereo partly drawn) [Example 23, 5-(4-((S)-2-(4-chlorophenyl)-3-(isopropylamino)propionyl)piperazin-1-yl)-4-methyl-1,4-dihydro-2H-pyrimido[4,5-d][1,3]oxazin-2-one formate] | 6 | 1.2 | 
CC(C)NC[C@@H](C(=O)N1CC2CCC(C1)N2c1ncnc2c1N(C)CC(=O)N2)c1ccc(Cl)cc1 [Example 26] | 30 | 0.52 | 
CC(C)NC[C@@H](C(=O)N1CCN(c2ncnc3c2N(C)C(=O)CN3)CC1)c1ccc(Cl)cc1 [Example 35, (S)-4-(4-(2-(4-chlorophenyl)-3-(isopropylamino)propionyl)piperazin-1-yl)-5-methyl-7,8-dihydropteridine-6(5H)-one] | 146 | 212 | 
CC(C)NC[C@@H](C(=O)N1CCN(c2ncnc3c2[C@H](C)C[C@H]3O)CC1)c1ccc(Cl)cc1 [GDC-0068, reference compound] |  |  | half-life [1, 2]: 2.59 h; AUC [1, 3]: 320 ng·h/mL; Cmax [1, 4]: 75.3 ng/mL; Tmax [1, 5]: 2 h
